Assay results from publication PMC3042382, “The evolution of farnesoid X, vitamin D, and pregnane X receptors: insights from the green-spotted pufferfish (Tetraodon nigriviridis) and other non-mammalian species” (BMC Biochemistry, 2011).
Read-outs that look alike come from different tables or passages of the source.

Legend:
[1] = biological target: T1, tnPXR (Tetraodon PXR, GAL4/LBD) (Tetraodon nigroviridis, UniProt H3D8U6); design: species or system HepG2-NTCP; GAL4/LBD chimera luciferase transactivation, normalised to beta-galactosidase, efficacy relative to maximal activator; conditions: agonist
T1 construct: cloned from liver RNA
T1 sequence (H3D8U6 123-404): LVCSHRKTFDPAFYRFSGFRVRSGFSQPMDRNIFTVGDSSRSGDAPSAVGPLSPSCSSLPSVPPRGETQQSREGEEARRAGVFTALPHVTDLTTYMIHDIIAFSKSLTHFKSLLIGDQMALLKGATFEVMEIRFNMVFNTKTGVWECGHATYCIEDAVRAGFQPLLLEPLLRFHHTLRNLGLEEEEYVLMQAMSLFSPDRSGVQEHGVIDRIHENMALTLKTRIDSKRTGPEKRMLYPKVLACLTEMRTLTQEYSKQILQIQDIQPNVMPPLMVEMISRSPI
Description: (§1) The creation of a HepG2 (human liver) cell line stably expressing the human Na^+-taurocholate cotransporter (NTCP; SLC10A1) has been previously reported. HepG2-NTCP cells were grown in modified Eagle's medium-α containing 10% fetal bovine serum and 1% penicillin/streptomycin. The cells were grown at 37°C in 5% CO2. The chicken LMH hepatoma cell line (ATCC, Manassus, VA, USA) was grown in Waymouth's MB 752/1 medium (ATCC) with 10 fetal bovine serum. The Xenopus laevis A6 kidney cell line (ATCC) was grown in 75% NCTC 109 medium, 15% distilled water, and 10% fetal bovine serum at 26°C in 2% CO2. Except as noted above, all media and media supplements for the HepG2 and A6 cell lines were obtained from Invitrogen (Carlsbad, CA, USA). Co-transfections and transactivations assays were performed as previously described. The maximal activators and their concentrations were as follows: chVDR, xlVDR, and tnVDR - 200 nM 1α,25-(OH)2-vitamin D3; tnFXR - 5 μM GW4064; tnPXR - 50 μM 5α-androstan-3α-ol. All comparisons to maximal activators were done within the same microplate. Luciferase data were normalized to the internal β-galactosidase control and represent means ± SD of the assays. The LBD of chicken VDR was cloned from RNA extracted from the LMH cell line. The LBD of Xenopus laevis VDR was cloned from RNA extracted from the A6 cell line. The LBDs of tnFXR, tnVDR, and tnPXR were cloned from total RNA extracted from Tetraodon liver using sequence information from the draft Tetraodon nigriviridis genome. The LBDs of chVDR (amino acid residues 113-451), xlVDR (amino acid residues 91-422), tnFXR (amino acid residues 180-463), tnVDR (amino acid residues 91-426), and tnPXR (amino acid residues 202-483) were inserted into the pM2-GAL4 vector to create GAL4/LBD chimeras.

[2] = biological target: T2, tnVDR (Tetraodon VDR alpha, GAL4/LBD) (Tetraodon nigroviridis, UniProt A0A0A1CGS5); experiment: cell-based; design: GAL4/LBD chimera luciferase transactivation, normalised to beta-galactosidase, efficacy relative to maximal activator; conditions: HepG2-NTCP; relative to 200 nM 1α,25-(OH)2-vitamin D3; read-out: Efficacy
T2 construct: gene VDRa; cloned from liver RNA
T2 sequence (A0A0A1CGS5 91-420): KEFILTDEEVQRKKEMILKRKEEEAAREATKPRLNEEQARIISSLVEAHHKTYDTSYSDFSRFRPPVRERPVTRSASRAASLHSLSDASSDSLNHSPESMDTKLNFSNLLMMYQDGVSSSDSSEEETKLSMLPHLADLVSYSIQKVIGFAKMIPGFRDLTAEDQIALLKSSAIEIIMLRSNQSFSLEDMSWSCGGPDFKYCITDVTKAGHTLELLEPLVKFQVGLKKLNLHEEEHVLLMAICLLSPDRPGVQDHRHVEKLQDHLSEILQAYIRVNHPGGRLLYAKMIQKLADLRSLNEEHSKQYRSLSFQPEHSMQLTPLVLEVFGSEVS
Description: as §1

[3] = biological target: T1, tnPXR (Tetraodon PXR, GAL4/LBD); experiment: cell-based; design: GAL4/LBD chimera luciferase transactivation, normalised to beta-galactosidase, efficacy relative to maximal activator; conditions: HepG2-NTCP; relative to 50 uM 5α-androstan-3α-ol; read-out: Efficacy
Description: as §1

[4] = biological target: T3, tnPXR (Tetraodon PXR, GAL4/LBD) (Tetraodon nigroviridis, UniProt H3D8U6); experiment: GAL4/LBD luciferase transactivation; type: cell-based; conditions: agonist, HepG2-NTCP cells
T3 construct: cloned from liver RNA

[5] = tested on: T4, tnFXR (Tetraodon FXR, GAL4/LBD); experiment: GAL4/LBD luciferase transactivation; type: cell-based, Tetraodon nigroviridis; conditions: agonist, HepG2-NTCP cells
T4 construct: gene NR1H4; cloned from liver RNA

[6] = biological target: T5, chVDR (chicken VDR, GAL4/LBD) (Gallus gallus, UniProt O42392); experiment: cell-based
T5 sequence (O42392 113-451): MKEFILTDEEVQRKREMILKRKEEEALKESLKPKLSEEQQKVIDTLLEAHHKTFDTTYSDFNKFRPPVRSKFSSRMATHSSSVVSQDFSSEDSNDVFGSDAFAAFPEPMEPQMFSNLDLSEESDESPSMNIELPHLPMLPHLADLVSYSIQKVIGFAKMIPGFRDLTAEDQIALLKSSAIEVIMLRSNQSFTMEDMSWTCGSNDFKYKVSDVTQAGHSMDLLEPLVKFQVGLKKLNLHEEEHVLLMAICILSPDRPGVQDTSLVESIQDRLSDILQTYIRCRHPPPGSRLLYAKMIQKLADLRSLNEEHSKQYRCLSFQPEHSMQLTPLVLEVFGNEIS

[7] = reference maximal activator ([…])

Compound | EC50 [1] | Emax [3] | further results
C[C@H](CCC(=O)O)[C@H]1CC[C@H]2[C@@H]3CC[C@@H]4CC(=O)CC[C@]4(C)[C@H]3CC[C@]12C [3_Keto_LCA] | 42.3 µM | 65% | Emax [2]: 17%
C[C@]12CC[C@@H](O)C[C@@H]1CC[C@@H]1[C@@H]2CC[C@]2(C)C=CC[C@@H]12 [5α-Androst-16-en-3α-ol] | 7.4 µM | 58% | –
C[C@H](CCC(=O)O)[C@H]1CC[C@H]2[C@@H]3CC[C@H]4CCCC[C@]4(C)[C@H]3CC[C@]12C [5α-Cholan-24-oic acid] | – | – | Emax [2]: 3%
C[C@H](CCCC(CO)COS(=O)(=O)O)[C@H]1CC[C@H]2[C@@H]3[C@H](O)C[C@H]4C[C@H](O)CC[C@]4(C)[C@H]3C[C@H](O)[C@]12C (stereo partly drawn) [5α-Cyprinol-27-sulfate] | 8.2 µM | – | –
C[C@@]12CCC[C@H]1[C@@H]1CC[C@H]3C[C@H](O)CC[C@]3(C)[C@H]1CC2 [5α-androstan-3α-ol] | – | – | EC50 [4, 7]: 6.1 ± 0.7 µM
CC(=O)[C@H]1CC[C@H]2[C@@H]3CC[C@@H]4CC(=O)CC[C@]4(C)[C@H]3CC[C@]12C [5β-Pregnanedione] | – | 73% | –
CC(=O)[C@H]1CC[C@H]2[C@@H]3CC[C@@H]4CC(=O)CC[C@]4(C)[C@H]3CC[C@]12C [5β-pregnane-3,20-dione] | – | – | EC50 [4]: 4 µM
C=C1CC[C@H](O)C/C1=C/C=C1\CCC[C@]2(C)[C@@H]([C@H](C)CCCC(C)(C)O)CC[C@@H]12 [25-Hydroxyvitamin D3] | – | – | Emax [2]: 110%
C[C@H](CCC(=O)O)[C@H]1CC[C@H]2[C@@H]3[C@H](O)C[C@@H]4C[C@H](O)CC[C@]4(C)[C@H]3CC[C@]12C [CDCA, 3α,7α-dihydroxy-5β-cholan-24-oic acid] | 15.6 µM | 38% | –
C[C@]12CCC(=O)C=C1CC[C@@H]1[C@@H]2C(=O)C[C@@]2(C)[C@H]1CC[C@]2(O)C(=O)CO [Cortisone] | 12.2 µM | 19% | –
C[C@]12CC[C@H](OS(=O)(=O)O)CC1=CC[C@@H]1[C@@H]2CC[C@]2(C)C(=O)CC[C@@H]12 [DHEA_sulfate] | 8.5 µM | 70% | –
C[C@H](CCC(=O)O)[C@H]1CC[C@H]2[C@@H]3CC[C@@H]4C[C@H](O)CC[C@]4(C)[C@H]3C[C@H](O)[C@]12C [Deoxycholic acid] | 9 µM | 33% | –
C[C@]12CC[C@@H]3c4ccc(O)cc4CC[C@H]3[C@@H]1CC[C@@H]2O [Estradiol] | 9.6 µM | 47% | –
CC(C)c1onc(-c2c(Cl)cccc2Cl)c1COc1ccc(/C=C/c2cccc(C(=O)O)c2)c(Cl)c1 [GW4064] | – | – | EC50 [5, 7]: 2.8 ± 0.8 µM
C[C@H](CCC(=O)O)[C@H]1CC[C@H]2[C@@H]3CC[C@@H]4C[C@@H](O)CC[C@]4(C)[C@H]3CC[C@]12C [Iso-LCA] | – | – | Emax [2]: 4%
CC(=O)O[C@@H]1CC[C@@]2(C)[C@H](CC[C@@H]3[C@@H]2CC[C@]2(C)[C@@H]([C@H](C)CCC(=O)O)CC[C@@H]32)C1 [LCA acetate] | – | – | Emax [2]: 61%
C[C@H](CCC(=O)O)[C@H]1CC[C@H]2[C@@H]3CC[C@@H]4C[C@H](O)CC[C@]4(C)[C@H]3CC[C@]12C [LCA, 3α-hydroxy-5β-cholan-24-oic acid] | 81 µM | 10% | Emax [2]: 12%; EC50 [6]: 50.3 ± 7.4 µM; EC50 [5]: 20.8 ± 1 µM
CC(=O)[C@H]1CC[C@H]2[C@@H]3CC=C4C[C@@H](O)CC[C@]4(C)[C@H]3CC[C@]12C [Pregnenolone] | 3.3 µM | 34% | –
CC(=O)[C@H]1CC[C@H]2[C@@H]3CCC4=CC(=O)CC[C@]4(C)[C@H]3CC[C@]12C [Progesterone] | 8.9 µM | 33% | –
O=S(=O)(c1ccccc1)N(CC(F)(F)F)c1ccc(C(O)(C(F)(F)F)C(F)(F)F)cc1 [T-0901317] | 7.7 µM | 17% | –
C[C@H](CCC(=O)NCCS(=O)(=O)O)[C@H]1CC[C@H]2[C@@H]3[C@H](O)C[C@@H]4C[C@H](O)CC[C@]4(C)[C@H]3CC[C@]12C [TCDCA, taurochenodeoxycholic acid] | – | 59% | EC50 [4]: 4.8 ± 0.3 µM
C[C@H](CCC(=O)NCCS(=O)(=O)O)[C@H]1CC[C@H]2[C@@H]3CC[C@@H]4C[C@H](O)CC[C@]4(C)[C@H]3CC[C@]12C [Tauro-LCA] | 19.1 µM | 29% | –
CCCCOC(=O)c1ccc(N)cc1 [n-butyl 4-amino benzoate] | – | 88% | EC50 [4]: 25.6 ± 1.4 µM
